From ChEMBL document CHEMBL1641589, “Phosphoramidate pronucleotides of cytostatic 6-aryl-7-deazapurine ribonucleosides” (Bioorg Med Chem, 2011) come the findings set out here.

Data set [1] can be described thus: Cytotoxicity against human HeLaS3 cells after 3 days by XTT assay. In kind it is functional, cell-based. The settings on record: HeLa S3, 72 h. A general note: Formazan colour is commonly taken as a measure of viable cells.
In data set [2] the test system is HepG2. The data set can be described thus: Cytotoxicity against human HepG2 cells after 3 days by XTT assay. The data set is classed as functional, cell-based. The settings on record: HepG2, 72 h.
The test system of data set [3] is HL-60. In words: Cytotoxicity against human HL60 cells after 5 days by SRB assay. The settings on record: HL-60, 120 h. In kind it is functional. For orientation: The SRB assay estimates cell density from bound dye.
Data set [4] relates to NCI-H23. The data set can be described thus: Cytotoxicity against human NCI-H23 cells after 5 days by SRB assay. The data set is classed as functional. The settings on record: NCI-H23, 120 h.
A short description of data set [5]: Chemical stability of the compound assessed as specific activity per ug at 30 uM after 30 mins in presence of purified carboxylesterase 2. In kind it is physicochemical. The settings on record: isolated protein, 0.5 h.
Data set [6] is described as follows: Chemical stability of the compound assessed as specific activity per ug at 30 uM after 30 mins in presence of purified cathepsin A. The data set is classed as physicochemical. The settings on record: 0.5 h.
The nature of data set [7]: Cytotoxicity against human Hs578 cells after 5 days by SRB assay. The data set is classed as functional. The settings on record: Hs578, 120 h.
Data set [8] deals with HCT-116. The data set can be described thus: Cytotoxicity against human HCT116 cells after 5 days by SRB assay. In kind it is functional. The settings on record: HCT-116, 120 h.
Data set [9] has as its system CCRF-CEM. The data set can be described thus: Cytotoxicity against human CCRF-CEM cells after 3 days by XTT assay. In kind it is functional, cell-based. The settings on record: 72 h.
A short description of data set [10]: Chemical stability of the compound assessed as specific activity per ug at 30 uM after 30 mins in presence of purified carboxylesterase 1. The settings on record: isolated protein, 0.5 h. The data set is classed as physicochemical.
Data set [11] relates to DU-145. In words: Cytotoxicity against human DU145 cells after 5 days by SRB assay. The settings on record: DU-145, 120 h. In kind it is functional.
For data set [12], the system named is CCRF-CEM. In words: Cell cycle arrest in human CCRF-CEM cells assessed as accumulation at G1 phase at IC50 concentration using propidium iodide staining by flow cytometry relative to control. In kind it is functional.
For data set [13], the system named is CCRF-CEM. In words: Cell cycle arrest in human CCRF-CEM cells assessed as accumulation at G2/M phase at IC50 concentration using propidium iodide staining by flow cytometry relative to control. The data set is classed as functional. In general terms: A flow cytometer gives signals particle by particle.
Data set [14] concerns CCRF-CEM. In words: Cell cycle arrest in human CCRF-CEM cells assessed as accumulation at S phase at IC50 concentration using propidium iodide staining by flow cytometry relative to control. In kind it is functional.
The subject of data set [15] is CCRF-CEM. In words: Cell cycle arrest in human CCRF-CEM cells assessed as increased of cellular debris level at IC50 concentration using propidium iodide staining by flow cytometry relative to control. In kind it is functional.

One may read the IC50 as the concentration that inhibits the measured activity by half. Lower therefore signals greater potency in that assay. By GI50 is commonly meant the concentration that inhibits growth by half. A lower GI50 goes with more potent growth inhibition.

Turning to `COC(=O)[C@H](C)NP(=O)(OC[C@H]1O[C@@H](n2ccc3c(-c4ccsc4)ncnc32)[C@H](O)[C@@H]1O)Oc1ccccc1` (some centres not stated), the IC50 in [1] was above 10000 nM; in data set [2], above 10000 nM; in data set [9], above 10 µM. For the same compound, the 50% growth inhibitory concentration (GI50) in [3] is above 10 µM; in data set [4], above 10000 nM; in data set [7], above 10000 nM; in data set [8], above 10000 nM; in data set [11], above 10000 nM. In addition, the Stability in data set [5] turned out to be 0 pmol/min; in data set [6], 1496 pmol/min; in [10] it was 167 pmol/min.

For the compound `CCOC(=O)[C@H](C)NP(=O)(OC[C@H]1O[C@@H](n2ccc3c(-c4ccco4)ncnc32)[C@H](O)[C@@H]1O)Oc1ccccc1` (some centres not stated), the IC50 in data set [1] amounted to 1020 nM; in [2], 1420 nM; in data set [9] it was 3.34 µM. Besides, the 50% growth inhibitory concentration (GI50) in [3] was 4.86 µM; in data set [4] it was 2870 nM; in [7], 2180 nM; in data set [8], 2500 nM; in [11], 2290 nM. Moreover, the Stability in data set [5] was determined as 0 pmol/min; in data set [6] it was 11989 pmol/min; in [10], 149 pmol/min. Besides, the Activity in data set [12] is 26.6%; in data set [13], 18.06%; in [14], 55.3%; in [15] it was 42.5%.

For `C[C@H](NP(=O)(OC[C@H]1O[C@@H](n2ccc3c(-c4ccco4)ncnc32)[C@H](O)[C@@H]1O)Oc1ccccc1)C(=O)OCc1ccccc1` (some centres not stated), the IC50 came out at 580 nM in [1], 620 nM in data set [2] and 1.13 µM in data set [9]. The GI50 in data set [3] turned out to be 2.19 µM; in data set [4], 1910 nM; in [7] it was 1040 nM; in data set [8], 1080 nM; in data set [11] it was 1360 nM. The Stability in [5] is reported as 0 pmol/min; in data set [6], 14727 pmol/min; in data set [10], 133 pmol/min. Further, the Activity in [12] is 31.6%; in data set [13], 13.7%; in data set [14] it was 54.7%; in data set [15], 48.8%.

Regarding `COC(=O)[C@H](C)NP(=O)(OC[C@H]1O[C@@H](n2ccc3c(-c4ccco4)ncnc32)[C@H](O)[C@@H]1O)Oc1ccccc1` (some centres not stated), the values for the IC50 in data set [1], in [2] and in data set [9] were 1400 nM, 1200 nM and 3.44 µM, respectively. Besides, the GI50 is 3.31 µM in data set [3]; 4630 nM in data set [4]; 2310 nM in data set [7]; 1030 nM in data set [8]; 1190 nM in data set [11]. Further, the Stability in data set [5] is 0 pmol/min; in [6], 1249 pmol/min; in data set [10] it was 86 pmol/min.
